Drawing on patent US20240199605A1, “SMALL MOLECULAR INHIBITORS OF NF-kB INDUCING KINASE” (Janssen Pharmaceutica NV, priority 2019, published 2024), this text covers IC50 for 9 molecules.

Assay [1] has as its system p-IKKα levels in L363 (NIK translocated multiple myeloma) cells. Briefly: Effect of compounds on p-IKKα levels in L363 cells (AlphaLISA SureFire Ultra). The following applies: BAFF stimulated, MG132, 6 h, average of values, read-out: Assay 2 IC50. It is filed as cell-based, human. An outline of the steps:
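Inhibition of p-IKKα (Ser176/180) read by AlphaLISA after 6 h, 37 °C compound exposure (11-point 1:3 series, 0.3% DMSO) of L363 cells pre-incubated overnight ± 250 ng/ml BAFF and plated ± BAFF ± 10 μM MG132. Normalised to BAFF/MG132/DMSO and unstimulated controls; IC50 by sigmoidal fitting, duplicates.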
On the technique in general: In Alpha technology, singlet oxygen from a donor bead excites a nearby acceptor bead.

For assay [2], the target named is recombinant human NF-kappaB-inducing kinase (NIK/MAP3K14) (Homo sapiens (Human), UniProt Q99558). The assay can be described thus: Inhibition of auto-phosphorylation of recombinant human NIK/MAP3K14 (AlphaScreen). Conditions: NIK auto-phosphorylation, 5 μM ATP, 1 nM NIK, 2 h at 25° C.; average of values. It is filed as biochemical. An outline of the steps:
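GST-tagged NIK (1 nM) auto-phosphorylated with 5 μM ATP for 2 h at 25° C. in 50 mM Tris pH 7.5, 5 mM MgCl2, 1 mM EGTA, 1 mM DTT, 0.1 mM Na3VO4, 0.01% Tween 20 (0.7% DMSO). Detected by AlphaScreen via anti-phospho-IKK Ser176/180 antibody; IC50 from sigmoidal fit of % inhibition versus log concentration.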

Where two headings read alike, the source gives them in different places.

Sequence of recombinant human NF-kappaB-inducing kinase (NIK/MAP3K14) (Q99558 whole entry): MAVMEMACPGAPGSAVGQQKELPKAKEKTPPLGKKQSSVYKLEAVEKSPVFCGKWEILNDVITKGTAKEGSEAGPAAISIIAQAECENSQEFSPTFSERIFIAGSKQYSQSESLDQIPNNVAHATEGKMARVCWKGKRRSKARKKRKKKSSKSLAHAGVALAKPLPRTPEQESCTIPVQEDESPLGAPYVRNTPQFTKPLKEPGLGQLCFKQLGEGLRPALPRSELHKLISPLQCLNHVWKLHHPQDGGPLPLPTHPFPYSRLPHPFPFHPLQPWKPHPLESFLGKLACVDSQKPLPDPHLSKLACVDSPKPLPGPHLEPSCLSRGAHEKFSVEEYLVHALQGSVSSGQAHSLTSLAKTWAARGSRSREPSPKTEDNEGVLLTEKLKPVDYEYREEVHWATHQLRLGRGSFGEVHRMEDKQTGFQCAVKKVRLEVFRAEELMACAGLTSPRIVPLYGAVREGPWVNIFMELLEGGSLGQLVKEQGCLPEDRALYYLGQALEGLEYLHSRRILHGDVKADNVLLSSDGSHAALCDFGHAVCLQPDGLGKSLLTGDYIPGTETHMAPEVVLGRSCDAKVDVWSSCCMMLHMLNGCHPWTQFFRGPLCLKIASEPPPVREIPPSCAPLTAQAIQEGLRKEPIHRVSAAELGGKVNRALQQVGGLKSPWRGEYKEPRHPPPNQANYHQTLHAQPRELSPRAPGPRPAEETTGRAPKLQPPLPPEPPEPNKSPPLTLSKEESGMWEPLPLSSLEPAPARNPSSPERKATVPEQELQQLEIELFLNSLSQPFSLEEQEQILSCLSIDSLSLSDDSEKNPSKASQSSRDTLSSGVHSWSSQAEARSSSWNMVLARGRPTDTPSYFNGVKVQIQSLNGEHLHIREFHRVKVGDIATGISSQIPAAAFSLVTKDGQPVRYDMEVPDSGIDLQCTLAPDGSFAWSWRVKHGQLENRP

One may read the IC50 as the concentration at which inhibition is half-maximal. For `CN1CC[C@@](O)(C#Cc2cccc(-c3cc(N4CC5(C4)CC5(F)F)c4ncnc(N)c4n3)c2)C1=O` [Example 307, (R)-3-[2-[3-[4-Amino-8-(2,2-difluoro-5-azaspiro[2.3]hexan-5-yl)pyrido[3,2-d]pyrimidin-6-yl]phenyl]ethynyl]-3-hydroxy-1-methyl-pyrrolidin-2-one], the IC50 in assay [1] (Homo sapiens, L-363, 6 h) stood at 40 nM; in assay [2], 1.6 nM.
For `[2H]c1nc(N)c2nc(-c3cccc(C#C[C@]4(O)CCN(C)C4=O)c3)cc(CC)c2n1` [Example 308, (R)-3-((3-(4-Amino-8-ethylpyrido[3,2-d]pyrimidin-6-yl-2-d)phenyl)ethynyl)-3-hydroxy-1-methylpyrrolidin-2-one], in that order: 190 nM and 6.8 nM.
For `CN1CC[C@@](O)(C#Cc2cccc(-c3cc(C4CCC4)c4ncnc(N)c4n3)c2)C1=O` [Example 309, (R)-3-((3-(4-Amino-8-cyclobutylpyrido[3,2-d]pyrimidin-6-yl)phenyl)ethynyl)-3-hydroxy-1-methylpyrrolidin-2-one], in that order: 9.7 nM and not above 0.5 nM.
`CN1CC[C@@](O)(C#Cc2cccc(-c3cc(-c4ccccc4)c4ncnc(N)c4n3)c2)C1=O` [Example 310, (R)-3-((3-(4-Amino-8-phenylpyrido[3,2-d]pyrimidin-6-yl)phenyl)ethynyl)-3-hydroxy-1-methylpyrrolidin-2-one]: the IC50 in assay [1] (Homo sapiens, L-363, 6 h) came to 13 nM; in assay [2] it was 0.7 nM.
Taken in the same sequence, the figures for `CN1CC[C@@](O)(C#Cc2cccc(-c3cc(-c4cccs4)c4ncnc(N)c4n3)c2)C1=O` [Example 311, (R)-3-((3-(4-Amino-8-(thiophen-2-yl)pyrido[3,2-d]pyrimidin-6-yl)phenyl)ethynyl)-3-hydroxy-1-methylpyrrolidin-2-one] were 3.6 nM and not above 0.5 nM.
For `CN1CC[C@@](O)(C#Cc2cccc(-c3cc(-c4ccco4)c4ncnc(N)c4n3)c2)C1=O` [Example 312, (R)-3-((3-(4-Amino-8-(furan-2-yl)pyrido[3,2-d]pyrimidin-6-yl)phenyl)ethynyl)-3-hydroxy-1-methylpyrrolidin-2-one], in that order: 11 nM and 0.8 nM.
Regarding `CN1CC[C@@](O)(C#Cc2cccc(-c3cc(C4CCN4)c4ncnc(N)c4n3)c2)C1=O` (stereo partly drawn) [Example 313, (3R)-3-((3-(4-Amino-8-(azetidin-2-yl)pyrido[3,2-d]pyrimidin-6-yl-2-d)phenyl)ethynyl)-3-hydroxy-1-methylpyrrolidin-2-one], the values for the IC50 in assay [1] and in assay [2] were 231 nM and 3.1 nM, respectively.
As for `C=Cc1cc(-c2cccc(C#C[C@]3(O)CCN(C)C3=O)c2)nc2c(N)ncnc12` [Example 314, (R)-3-((3-(4-Amino-8-vinylpyrido[3,2-d]pyrimidin-6-yl)phenyl)ethynyl)-3-hydroxy-1-methylpyrrolidin-2-one], the half-inhibitory concentration (IC50) in assay [1] (Homo sapiens, L-363, 6 h) stood at 14 nM; in assay [2], 2.9 nM.
Taken in the same sequence, the figures for `CN1CC[C@@](O)(C#Cc2cccc(-c3cc(N4CCC4)c4ncnc(N)c4n3)c2)C1=O` [Example 316, (R)-3-[2-[3-[4-Amino-8-(azetidin-1-yl)pyrido[3,2-d]pyrimidin-6-yl]phenyl]ethynyl]-3-hydroxy-1-methyl-pyrrolidin-2-one] were 9.5 nM and 0.9 nM.
